Reference: ChEMBL document CHEMBL5729683, “Diazaindole derivative and use thereof as CHK1 inhibitor” (2023)

Legend:
[1] = target: Serine/threonine-protein kinase Chk2 (Homo sapiens, UniProt O96017); assay: Activity Test of Compounds in the CHK1 Coupled Reaction System: The compounds of the present disclosure used in the experiments were self-prepared, and their chemical names and structural formulas were shown in the preparation embodiments of each compound. […] The test was carried out on the KinaseProfiler™ protein kinase activity detection platform of Eurofins, and the experimental results were provided by the company. […] A mixture solution of Mg2′ and ATP (adenosine triphosphate) was added to initiate the reaction and the reaction solution was incubated at room temperature for 40 min. 0.5% […] was added to terminate the reaction. […] The value was read with scintillation counting method after drying.
[2] = target: T1, Serine/threonine-protein kinase Chk1 (Homo sapiens, UniProt O14757); assay: Activity Test of Compounds in the CHK1 Coupled Reaction System: The compounds of the present disclosure used in the experiments were self-prepared, and their chemical names and structural formulas were shown in the preparation embodiments of each compound. The determination mixture containing embodiment compounds of the present disclosure and Chk1 and Chk2 kinases were incubated in a microtiter plate, and CHK1 inhibitor activity of compounds were tested by monitoring the phosphorylation of Chk1 and Chk2 kinases on a synthetic peptide substrate with a specific amino acid sequence ([…], SEQ ID NO: 1). The test was carried out on the KinaseProfiler™ protein kinase activity detection platform of Eurofins, and the experimental results were provided by the company. The procedure was as follows: Chk1 and Chk2 kinases were diluted with 20 mM MOPS (morpholinpropane sulfonic acid), 1 mM EDTA (ethylenediaminetetraacetic acid), 0.04% Brij-35, 5% glycerol, 0.1% 2-mercaptoethanol, 1 mg/mL BSA (bovine serum albumin) and added to the reaction system, and the reaction system contained the embodiment compounds, 8 mM MOPS pH 7.0, 0.2 mM EDTA, 200 sM polypeptide substrate ([…], SEQ ID NO: 1), 10 mM magnesium acetate and a certain concentration of [γ-33P]-ATP (the strength was about 500 cpm/pmol). A mixture solution of Mg2′ and ATP (adenosine triphosphate) was added to initiate the reaction and the reaction solution was incubated at room temperature for 40 min. 0.5% Phosphate buffer was added to terminate the reaction. 10 μL of the reaction solution was filtered four times on a continuous filter P30, washed three times with 0.425 phosphate buffer, and once with methanol, each wash for 4 min. The value was read with scintillation counting method after drying.
T1 sequence (O14757 whole entry): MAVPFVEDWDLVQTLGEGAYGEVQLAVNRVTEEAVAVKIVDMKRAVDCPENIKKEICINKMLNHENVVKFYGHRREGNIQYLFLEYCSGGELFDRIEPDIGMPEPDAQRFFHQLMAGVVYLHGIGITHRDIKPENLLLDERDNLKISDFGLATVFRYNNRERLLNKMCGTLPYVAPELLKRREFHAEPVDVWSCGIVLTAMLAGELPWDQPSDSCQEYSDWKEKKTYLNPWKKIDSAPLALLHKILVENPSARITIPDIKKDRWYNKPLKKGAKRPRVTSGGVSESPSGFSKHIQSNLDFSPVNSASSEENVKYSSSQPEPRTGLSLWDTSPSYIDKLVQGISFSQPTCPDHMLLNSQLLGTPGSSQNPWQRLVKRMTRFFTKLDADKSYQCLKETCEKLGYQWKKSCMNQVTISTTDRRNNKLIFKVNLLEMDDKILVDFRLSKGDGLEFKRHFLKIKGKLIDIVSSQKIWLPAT

Chain of Serine/threonine-protein kinase Chk2 (O96017 whole entry): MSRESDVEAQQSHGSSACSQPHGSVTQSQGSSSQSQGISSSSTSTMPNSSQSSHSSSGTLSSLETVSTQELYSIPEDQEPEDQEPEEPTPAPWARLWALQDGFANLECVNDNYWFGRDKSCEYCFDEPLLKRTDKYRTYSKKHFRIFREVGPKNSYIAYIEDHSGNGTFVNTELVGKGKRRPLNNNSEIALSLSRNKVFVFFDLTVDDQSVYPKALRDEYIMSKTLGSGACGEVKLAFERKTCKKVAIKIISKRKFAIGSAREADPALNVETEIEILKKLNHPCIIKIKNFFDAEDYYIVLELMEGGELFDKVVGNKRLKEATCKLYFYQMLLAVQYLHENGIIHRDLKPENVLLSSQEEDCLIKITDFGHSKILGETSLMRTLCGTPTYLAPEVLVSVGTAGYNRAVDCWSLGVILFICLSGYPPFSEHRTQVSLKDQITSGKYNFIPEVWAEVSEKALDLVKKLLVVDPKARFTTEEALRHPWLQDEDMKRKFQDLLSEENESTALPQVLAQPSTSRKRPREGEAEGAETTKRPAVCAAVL

SMILES | IC50 [1] | IC50 [2]
COc1nc(C)ccc1-c1cc(Nc2cnc3c(F)cn(C4CCN(C)CC4)c3n2)n[nH]1 | 166 nM | –
COc1nc(C)ccc1-c1cc(Nc2cnc3c(F)cn(C4CCNCC4)c3n2)n[nH]1 | 28 nM | –
COc1cccc(F)c1-c1cc(Nc2cnc3c(F)cn(C4CCNCC4)c3n2)n[nH]1 | 2 nM | < 1 nM
COc1nc(C)ccc1-c1cc(Nc2cnc3ccn(C4CCNCC4)c3n2)n[nH]1 | 79 nM | –
COc1nc(C)ccc1-c1cc(Nc2cnc3ccn(C4CCN(C)CC4)c3n2)n[nH]1 | 257 nM | –
COc1cccc(F)c1-c1cc(Nc2cnc3ccn(C4CCNCC4)c3n2)n[nH]1 | 13 nM | in the range around 1 nM
COc1nc(C)ccc1-c1cc(Nc2cnc3ccn(CC4CCNCC4)c3n2)n[nH]1 | 1970 nM | 5 nM
COc1cccc(F)c1-c1[nH]nc(Nc2cnc3ccn(C4CCNCC4)c3n2)c1F | 24 nM | in the range around 2 nM
